Results: patent US9161936B2, “Laquinimod for treatment of GABA mediated disorders” (TEVA PHARMACEUTICAL INDUSTRIES, LTD., priority 2012, dated 2015)

Columns and labels:
[1] = background statement; cited from earlier work
[2] = system: glutamate-mediated sEPSCs in striatal neurons; assay: Whole-cell patch clamp of sEPSCs in striatal neurons of LQ-treated EAE mice; type: in vivo, mouse; settings: LQ-EAE mice 25 mg/kg
EAE mice = assay: EAE induction and disease evaluation, preventive daily s.c. LQ; type: in vivo, mouse; settings: for mice that developed the disease (incidence): 0-26 d.p.i., 15 mice; for maximum disease score: score 0-5
Protocol: Female C57BL/6 mice at 6-8 weeks of age were purchased from Charles River (Calco, Milan, Italy) and housed in pathogen-free conditions. All procedures involving animals were performed according to the guidelines of the San Raffaele Scientific Institute Institutional Animal Care and Use Committee.
EAE was induced by immunization with 3 subcutaneous injection of 100 μl each, containing a total of 200 μg of myelin oligodendrocyte glycoprotein (MOG) peptide 35-55 (Multiple Peptide System) in incomplete Freund's adjuvant and 8 mg/ml of Mycobacterium tuberculosis (strain H37Ra; Difco). Pertussis toxin (Sigma) (500 ng) was injected on the day of the immunization and again two days later. Body weight and clinical score (0=healthy; 1=limp tail; 2=ataxia and/or paresis of hindlimbs; 3=paralysis of hindlimbs and/or paresis of forelimbs; 4=tetraparalysis; 5=moribund or death) were recorded daily.
EAE mice were treated once daily by subcutaneous (s.c.) injection of LQ (supplied by Teva Pharmaceutical Industries, Netanya, Israel) (thereafter referred as LQ-EAE). LQ was administered at different doses (from 1 to 25 mg/kg) starting the same day of immunization up to 26 days post immunization (d.p.i.). Sham treated EAE mice (thereafter referred as untreated-EAE) and healthy control mice (thereafter referred as HC) were used as controls. Statistical analysis was performed using the unpaired Student's t-test.

[3] = mouse, in vivo, sc, 25 mg/kg
[4] = system: glutamate-mediated sEPSCs in control neurons; assay: Bath application of LQ on corticostriatal slices of wild type mice, sEPSCs; type: cell-based, mouse
cannabinoid CB1 receptor = cannabinoid CB1 receptor (Mus musculus, UniProt P47746); assay: Effect of HU210 on sIPSC frequency in striatal neurons (CB1 sensitivity of GABA synapses); settings: for sIPSC frequency respect to pre-drug values: HU210 1 μM
cannabinoid CB1 receptor, sequence (P47746 whole entry): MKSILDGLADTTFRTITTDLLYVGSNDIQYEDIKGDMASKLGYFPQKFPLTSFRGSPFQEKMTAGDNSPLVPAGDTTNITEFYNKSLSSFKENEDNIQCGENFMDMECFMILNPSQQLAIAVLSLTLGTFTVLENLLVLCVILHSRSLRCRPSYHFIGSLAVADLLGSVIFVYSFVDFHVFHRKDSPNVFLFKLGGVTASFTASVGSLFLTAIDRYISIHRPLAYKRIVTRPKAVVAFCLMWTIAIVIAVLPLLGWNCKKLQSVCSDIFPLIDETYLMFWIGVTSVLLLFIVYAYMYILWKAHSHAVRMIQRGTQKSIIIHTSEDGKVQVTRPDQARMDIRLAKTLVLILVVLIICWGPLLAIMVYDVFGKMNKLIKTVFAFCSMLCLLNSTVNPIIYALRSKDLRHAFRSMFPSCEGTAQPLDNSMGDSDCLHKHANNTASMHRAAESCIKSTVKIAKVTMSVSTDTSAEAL
Protocol: Recordings were performed between 25 and 35 dpi. Mice were killed by cervical dislocation under halothane anaesthesia, and corticostriatal coronal slices (200 μm) were prepared from fresh tissue blocks of the brain with the use of a vibratome (Centonze et al., 2007, 2009; Rossi et al., 2010a,b). A single slice was then transferred to a recording chamber and submerged in a continuously flowing artificial CSF (ACSF) (34° C., 2-3 ml/min) gassed with 95% O2-5% CO2. The composition of the control ACSF was (in mM): 126 NaCl, 2.5 KCl, 1.2 MgCl2, 1.2 NaH2PO4, 2.4 CaCl2, 11 Glucose, 25 NaHCO3. Recording pipettes were advanced towards individual striatal cells in the slice under positive pressure and visual control (WinVision 2000, Delta Sistemi, Italy) and, on contact, tight GΩ seals were made by applying negative pressure. The membrane patch was then ruptured by suction and membrane current and potential monitored using an Axopatch 1D patch clamp amplifier (Axon Instruments, Foster City, Calif., USA). Whole-cell access resistances measured in voltage clamp were in the range of 5-20 MΩ. Whole-cell patch clamp recordings were made with borosilicate glass pipettes (1.8 mm o.d.; 2-3 MΩ), in voltage-clamp mode, at the holding potential (HP) of −80 mV. […] Conversely, to detect spontaneous GABAAmediated inhibitory postsynaptic currents (sIPSCs), intraelectrode solution had the following composition (mM): CsCl (110), K+-gluconate (30), ethylene glycol-bis(β-aminoethyl ether)-N,N,N′,N′-tetra-acetic acid (EGTA; 1.1), HEPES (10), CaCl2 (0.1), Mg-ATP (4), Na-GTP (0.3). MK-801 (30 μM) and CNQX (10 μM) were added to the external solution to block, respectively, NMDA and nonNMDA glutamate receptors. Synaptic events were stored by using P-CLAMP (Axon Instruments) and analyzed off line on a personal computer with Mini Analysis 5.1 (Synaptosoft, Leonia, N.J., USA) software. The detection threshold of spontaneous IPSCs and EPSCs was set at twice the baseline noise. The fact that no false events would be identified was confirmed by visual inspection for each experiment. Offline analysis was performed on spontaneous and miniature synaptic events recorded during fixed time epochs (3-5 min, 3-6 samplings), sampled every 5 or 10 minutes. […] For kinetic analysis, events with peak amplitude between 10 and 50 pA were grouped, aligned by half-rise time, normalized by peak amplitude. In each cell, the events were averaged to obtain rise times, decay times, and half widths (Centonze et al., 2009; Rossi et al., 2010a,b). […]
For data presented as mean±SE, n indicates the number of cells. One to six cells per animal were recorded. […] Multiple comparisons were analysed by one-way ANOVA followed by Tukey's HSD test. Comparisons between two groups were analysed by paired or unpaired Student's t-test. […]

[5] = systemically administered (Brück et al., 2011); cited from earlier work
[6] = system: GABAA-mediated sIPSCs in control neurons; assay: Bath application of LQ on corticostriatal slices of wild type mice, sIPSCs; type: cell-based, mouse
[7] = system: GABAA-mediated sIPSCs in striatal neurons; assay: Whole-cell patch clamp of sIPSCs in striatal neurons of LQ-treated EAE mice; type: in vivo, mouse; settings: LQ-EAE mice 25 mg/kg, n=20
aEAE model = settings: shown in U.S. Pat. No. 6,077,851; cited from earlier work
spinal cord of EAE mice = assay: Histological evaluation of spinal cord of EAE mice; type: in vivo, mouse
Protocol: At least 5 mice per group were transcardially perfused through the left cardiac ventricle with saline, plus EDTA 0.5 M for 5-10 min followed by fixation with cold 4% paraformaldehyde (PFA) (Sigma, St Louis, Mo.) in 0.1 M phosphate buffer (pH 7.4). Subsequently, spinal cords and brains were carefully dissected out and post-fixed in 4% PFA for 3-4 h and processed for paraffin embedding. The quantification of neurological damage was performed on 5 μm paraffin CNS sections obtained from HC, LQ-EAE mice, and untreated-EAE mice. Three different staining were used to detect inflammatory infiltrates (H&E), demyelination (Luxol fast blue) and axonal damage (Bielshowsky). Immunohistochemistry for CD3 (pan-T cell marker, Serotec Ltd, Oxford, UK), and BS-I isolectin B4 (biotinilated from Sigma, St Louis, Mo.) was performed to investigate T cells and macrophages within the inflammatory cellular infiltrates, respectively. […] Neuropathological findings were quantified on an average of 18-20 complete cross-sections of spinal cord per mouse taken at 8 different levels of the spinal cord. The number of perivascular inflammatory infiltrates were calculated and expressed as the numbers of inflammatory infiltrates per mm^2, demyelinated areas and axonal loss were expressed as percentage of damaged area per mm2. The number of T cells and macrophages lining within the subarachnoid space or infiltrating the CNS parenchyma was calculated and expressed as the number of cells per mm2. An Olympus microscope for the acquisitions of pictures was used. Statistical analysis was performed using the unpaired Student's t-test.

[8] = LQ 1 μM bath application, control neurons
[9] = LQ 1 μM, 12 minutes, control neurons
[10] = LQ-EAE mice vs untreated-EAE mice
[11] = s.c. LQ vs untreated-EAE mice, spinal cord sections

In the case of `CCN(C(=O)c1c(O)c2c(Cl)cccc2n(C)c1=O)c1ccccc1` [LQ, N-ethyl-N-phenyl-1,2-dihydro-4-hydroxy-5-chloro-1-methyl-2-oxoquinoline-3-carboxamide], the oral bioavailability [1] is given as “high”, the sEPSC decay time ([2]; 25-35 dpi, n=20, untreated-EAE 5.4±0.4, HC 3.4±0.2) is given as 4.2 ± 0.3 ms and the sEPSC frequency ([2]; n=20, untreated-EAE 4.0±0.2, HC 2.7±0.2) is given as 3.4±0.4 Hz. It also gave a sEPSC half-width ([2]; n=20, untreated-EAE 6.4±0.4, HC 4.0±0.3) of 5.0 ± 0.3 ms, a sEPSC rise time ([2]; untreated-EAE 1.05±0.1, HC 1.03±0.1) of 0.98 ± 0.1 ms and a sEPSC amplitude ([2]; untreated-EAE 11.1±0.8, HC 12.0±1.0) of 12.2±1.1 pA. The “mice that developed the disease (incidence)” value (EAE mice; 1 mg/kg LQ s.c. daily, untreated-EAE 15/15) was 86.6%, the maximum disease score (EAE mice; 1 mg/kg LQ s.c. daily, sham 3.5) was 3.5 and the “cumulative score (0-26 dpi)” value (EAE mice; 1 mg/kg LQ s.c. daily, untreated EAE 27.5) was 27.3. The mean disease onset (EAE mice; 1 mg/kg LQ s.c. daily, untreated-EAE 11.9 (±2.33)) was 11.9 (±2.47), the “cumulative score (0-26 dpi)” value (EAE mice; 5 mg/kg LQ s.c. daily) was 21.5 and the mean disease onset (EAE mice; 5 mg/kg LQ s.c. daily) was 14.6 (±4.29). The “mice that developed the disease (incidence)” value (EAE mice; 5 mg/kg LQ s.c. daily) was 80%, the maximum disease score (EAE mice; 5 mg/kg LQ s.c. daily) was 3 and the “cumulative score (0-26 dpi)” value (EAE mice; 25 mg/kg LQ s.c. daily) was 21.3. The “mice that developed the disease (incidence)” value (EAE mice; 25 mg/kg LQ s.c. daily) was 40%, the maximum disease score (EAE mice; 25 mg/kg LQ s.c. daily) was 1.5 and the “suppression of EAE” value (EAE mice; preventive treatment 0-26 dpi, daily s.c. 1-25 mg/kg, dose-dependent) was “significantly suppresses”. For the same molecule, the mean disease onset (EAE mice; printed "the mg/kg LQ-EAE mice" (dose figure missing), s.c. daily) was 13.5 (±2.43), the CNS concentration [3] was 0.3 to 1 µM and the sEPSC amplitude [4, 8] was “failed to alter”. The sEPSC frequency [4, 8] was “failed to alter”, the “sEPSC decay time compared to pre-drug values” [4, 9] was 101±2% and the “sEPSC rise time compared to pre-drug values” [4, 9] was 99±1%. The sEPSC amplitude ([4]; LQ 10-30 μM bath application, control neurons, n=10, p<0.01) was “reducing”, the EC50 ([4]; Mus musculus, Neuron, dose-response curve, bath application, control neurons, read-out: EC50 of LQ-induced decrease of sEPSC amplitude) was 4.5 µM and the “sEPSC frequency respect to pre-drug values” ([4]; highest concentration of LQ, n=7, p<0.05) was 83±2.7%. For the same molecule, the “effect of CB1 receptor agonist HU210 on sIPSCs after LQ treatment” value (cannabinoid CB1 receptor; prophylactic LQ 25 mg/kg in EAE mice) was “completely restored”, the “crossing of the blood brain barrier” value [5] was “able to cross the blood brain barrier” and the sIPSC amplitude ([6]; LQ 1 μM bath application) was “failed to alter”. For the same molecule, the sIPSC frequency ([6]; LQ 1 μM bath application) was “failed to alter”, the “sIPSC decay time compared to pre-drug values” ([6]; LQ 1 μM, 12 minutes) was 98±3% and the “sIPSC rise time compared to pre-drug values” ([6]; LQ 1 μM, 12 minutes) was 101±2%. For the same molecule, the sIPSC frequency ([6]; LQ 10-30 μM bath application, n=8, p<0.01) was “significantly increased”, the EC50 ([6]; Mus musculus, Neuron, dose-response curve, bath application, read-out: EC50 of LQ-induced increase of sIPSC frequency) was 4.3 µM and the sIPSC frequency ([7]; untreated-EAE 0.8±0.1, HC 1.7±0.1) was 2.0±0.2 Hz. For the same molecule, the sIPSC amplitude ([7]; untreated-EAE 20±1.5, HC 32±1.3) was 29±1.1 pA, the “efficacy in the acute experimental autoimmune encephalomyelitis (aEAE) model” value (aEAE model) was “effective” and the “CD3+ T cells” value (spinal cord of EAE mice; [10]) was “significant reduction”. For the same molecule, the “IB4+ macrophages” value (spinal cord of EAE mice; [10]) was “significant reduction”, the “axonal damage (percentage over total section area)” value (spinal cord of EAE mice; [11]) was “significantly reduces” and the “inflammation (perivascular infiltrates per section)” value (spinal cord of EAE mice; [11]) was “significantly reduces”. For the same molecule, the “myelin loss (demyelination, percentage over total section area)” value (spinal cord of EAE mice; [11]) was “significantly reduces”.

In the case of `CCCCCCC(C)(C)c1cc(O)c2c(c1)OC(C)(C)[C@@H]1CC=C(CO)C[C@@H]21` [HU210], the “sIPSC frequency respect to pre-drug values” (cannabinoid CB1 receptor; 10 min, control slices, n=8) is reported as 76±3%, the “sIPSC frequency respect to pre-drug values” (cannabinoid CB1 receptor; striatal neurons from LQ-EAE mice (25 mg/kg), n=10) is reported as 75±3% and the “sIPSC frequency respect to pre-drug values” (cannabinoid CB1 receptor; striatal neurons from untreated EAE mice, n=10) is reported as 101±3%.

For `N#Cc1cc2[nH]c(=O)c(=O)[nH]c2cc1[N+](=O)[O-]` [CNQX, reference compound], the “blockade of sEPSCs recorded in the presence of LQ” value ([4]; CNQX 10 μM, n=5) was “fully blocked”.
